The values below come from ChEMBL document CHEMBL1147164, “Synthesis, stereochemistry and antimicrobial evaluation of some N-morpholinoacetyl-2,6-diarylpiperidin-4-ones” (2007).

SMILES strings stand for the structures. In brackets after ≈: the same amount, converted by molar mass. Activity calls are given as the source filed them.

As usually defined, the MIC is the smallest concentration in the dilution series that meets the test's criterion for growth inhibition. Higher therefore signals weaker potency.

Assay [1] deals with Escherichia coli. Nature of the assay: Antibacterial activity against Escherichia coli after 24 hrs by twofold serial dilution method. It is filed as functional.
The test system of assay [2] is Staphylococcus aureus. Briefly: Antibacterial activity against Staphylococcus aureus after 24 hrs by twofold serial dilution method. The format is functional.
Assay [3] has as its system Pseudomonas aeruginosa. Briefly: Antibacterial activity against Pseudomonas aeruginosa after 24 hrs by twofold serial dilution method. The format is functional.
Assay [4] has as its system Salmonella typhi. Briefly: Antibacterial activity against Salmonella typhi after 24 hrs by twofold serial dilution method. To be noted: Salmonella enterica. The format is functional, Salmonella enterica subsp. enterica serovar Typhi.
For assay [5], the system named is Candida albicans. Nature of the assay: Antifungal activity against Candida albicans after 72 to 96 hrs by twofold serial dilution method. It is filed as functional.
Assay [6] deals with Rhizopus. Briefly: Antifungal activity against Rhizopus sp. after 72 to 96 hrs by twofold serial dilution method. It is filed as functional.
Assay [7] has as its system Aspergillus niger. Nature of the assay: Antifungal activity against Aspergillus niger after 72 to 96 hrs by twofold serial dilution method. The format is functional.
The test system of assay [8] is Aspergillus flavus. Briefly: Antifungal activity against Aspergillus flavus after 72 to 96 hrs by twofold serial dilution method. The format is functional.
The subject of assay [9] is Salmonella typhi. Briefly: Antibacterial activity against Salmonella typhi at 200 ug/ml after 24 hrs by twofold serial dilution method. It is filed as functional, organism-based. Particulars: Salmonella enterica subsp. enterica serovar Typhi.
Assay [10] has as its system Candida albicans. Nature of the assay: Antifungal activity against Candida albicans at 200 ug/ml after 72 to 96 hrs by twofold serial dilution method. It is filed as functional, organism-based.
For assay [11], the system named is Escherichia coli. Nature of the assay: Antibacterial activity against Escherichia coli at 200 ug/ml after 24 hrs by twofold serial dilution method. The format is functional, organism-based.
In assay [12] the test system is Aspergillus flavus. Nature of the assay: Antifungal activity against Aspergillus flavus at 200 ug/ml after 72 to 96 hrs by twofold serial dilution method. It is filed as functional, organism-based.

Turning to `CC(C)C1C(=O)CC(c2ccccc2)N(C(=O)CN2CCOCC2)C1c1ccccc1` (stereo not drawn), the MIC in [1] turned out to be 100 µg/mL (≈ 238 µM); in assay [2] it was 100 µg/mL (≈ 238 µM); in assay [3], 50 µg/mL (≈ 119 µM); in [4], 200 µg/mL (≈ 476 µM); in assay [5], 50 µg/mL (≈ 119 µM); in assay [6] it was 25 µg/mL (≈ 59.4 µM). The MIC in assay [7] turned out to be 50 µg/mL (≈ 119 µM); in assay [8], 100 µg/mL (≈ 238 µM).
With `CC1C(=O)CC(c2ccccc2)N(C(=O)CN2CCOCC2)C1c1ccccc1` (stereo not drawn), the minimal inhibitory concentration (MIC) in [1] came to 100 µg/mL (≈ 255 µM); in assay [2], 200 µg/mL (≈ 510 µM); in [3] it was 50 µg/mL (≈ 127 µM); in assay [6], 100 µg/mL (≈ 255 µM); in assay [7], 50 µg/mL (≈ 127 µM); in assay [8], 50 µg/mL (≈ 127 µM). Further, the result in assay [9] and in assay [10] was inactive.
Regarding `C[C@@H]1[C@H](O)[C@@H](C)/C=C/C=C/C=C/C=C/C=C/C=C/C=C/[C@H](O[C@@H]2O[C@H](C)[C@@H](O)[C@H](N)[C@@H]2O)C[C@@H]2O[C@](O)(C[C@@H](O)C[C@@H](O)[C@H](O)CC[C@@H](O)C[C@@H](O)CC(=O)O[C@H]1C)C[C@H](O)[C@H]2C(=O)O` [AMPHOTERICIN B], the minimal inhibitory concentration (MIC) in assay [5] turned out to be 25 µg/mL (≈ 27.1 µM); in [6] it was 25 µg/mL (≈ 27.1 µM); in assay [7] it was 50 µg/mL (≈ 54.1 µM); in assay [8] it was 50 µg/mL (≈ 54.1 µM).
Turning to `O=C(O)c1cn(C2CC2)c2cc(N3CCNCC3)c(F)cc2c1=O` [CIPROFLOXACIN], the minimum inhibitory concentration (MIC) in [1] was found to be 25 µg/mL (≈ 75.4 µM); in [4], 50 µg/mL (≈ 151 µM).
Regarding `COc1ccc(C2CC(=O)C(C)C(c3ccc(OC)cc3)N2C(=O)CN2CCOCC2)cc1` (stereo not drawn), the MIC was determined as 100 µg/mL (≈ 221 µM) in [1]; 50 µg/mL (≈ 110 µM) in [2]; 25 µg/mL (≈ 55.2 µM) in assay [3]; 50 µg/mL (≈ 110 µM) in [4]; 25 µg/mL (≈ 55.2 µM) in assay [5]; 6.25 µg/mL (≈ 13.8 µM) in assay [6]. Moreover, the MIC in [7] was 50 µg/mL (≈ 110 µM); in assay [8] it was 12.5 µg/mL (≈ 27.6 µM).
`CC1C(=O)C(C)C(c2ccc(Cl)cc2)N(C(=O)CN2CCOCC2)C1c1ccc(Cl)cc1` (stereo not drawn): the MIC in assay [1] is 25 µg/mL (≈ 52.6 µM); in assay [2], 25 µg/mL (≈ 52.6 µM); in assay [3], 50 µg/mL (≈ 105 µM); in assay [4], 100 µg/mL (≈ 210 µM); in assay [5], 6.25 µg/mL (≈ 13.1 µM); in [6], 25 µg/mL (≈ 52.6 µM). Besides, the minimal inhibitory concentration (MIC) in assay [7] was found to be 25 µg/mL (≈ 52.6 µM); in assay [8], 6.25 µg/mL (≈ 13.1 µM).
On to `Cc1ccc(C2C(C)C(=O)C(C)C(c3ccc(C)cc3)N2C(=O)CN2CCOCC2)cc1` (stereo not drawn), for which the MIC was found to be 25 µg/mL (≈ 57.5 µM) in assay [1]; 50 µg/mL (≈ 115 µM) in assay [2]; 6.25 µg/mL (≈ 14.4 µM) in assay [3]; 6.25 µg/mL (≈ 14.4 µM) in [4]; 50 µg/mL (≈ 115 µM) in assay [5]; 25 µg/mL (≈ 57.5 µM) in [6]. Also, the MIC came out at 50 µg/mL (≈ 115 µM) in [7] and 25 µg/mL (≈ 57.5 µM) in [8].
Take `COc1ccc(C2C(C)C(=O)C(C)C(c3ccc(OC)cc3)N2C(=O)CN2CCOCC2)cc1` (stereo not drawn): the minimal inhibitory concentration (MIC) is 12.5 µg/mL (≈ 26.8 µM) in assay [1]; 6.25 µg/mL (≈ 13.4 µM) in assay [2]; 12.5 µg/mL (≈ 26.8 µM) in assay [3]; 25 µg/mL (≈ 53.6 µM) in [4]; 100 µg/mL (≈ 214 µM) in assay [5]; 50 µg/mL (≈ 107 µM) in [6]. The minimal inhibitory concentration (MIC) is 50 µg/mL (≈ 107 µM) in [7] and 100 µg/mL (≈ 214 µM) in assay [8].
For the molecule `CCC1C(=O)CC(c2ccccc2)N(C(=O)CN2CCOCC2)C1c1ccccc1` (stereo not drawn), the MIC in assay [1] came to 50 µg/mL (≈ 123 µM); in assay [2], 50 µg/mL (≈ 123 µM); in [3], 25 µg/mL (≈ 61.5 µM); in assay [4] it was 100 µg/mL (≈ 246 µM); in assay [5], 100 µg/mL (≈ 246 µM); in assay [6], 200 µg/mL (≈ 492 µM). The MIC in assay [7] and in assay [8] was 100 µg/mL (≈ 246 µM) each time.
With `CC1C(=O)C(C)C(c2ccccc2)N(C(=O)CN2CCOCC2)C1c1ccccc1` (stereo not drawn), the MIC in assay [1] worked out at 100 µg/mL (≈ 246 µM); in assay [2], 50 µg/mL (≈ 123 µM); in assay [3], 25 µg/mL (≈ 61.5 µM); in [4], 50 µg/mL (≈ 123 µM); in assay [5] it was 50 µg/mL (≈ 123 µM); in assay [6], 12.5 µg/mL (≈ 30.7 µM). In addition, the minimal inhibitory concentration (MIC) turned out to be 25 µg/mL (≈ 61.5 µM) in assay [7] and 50 µg/mL (≈ 123 µM) in assay [8].
`O=C1CC(c2ccccc2)N(C(=O)CN2CCOCC2)C(c2ccccc2)C1` (stereo not drawn): the MIC in [2] is 200 µg/mL (≈ 528 µM); in [3] it was 100 µg/mL (≈ 264 µM); in [4], 100 µg/mL (≈ 264 µM); in assay [6], 100 µg/mL (≈ 264 µM); in assay [7], 200 µg/mL (≈ 528 µM). Moreover, the result in assay [11], in assay [10] and in assay [12] was inactive.
